Laboratory results from patent US20240300987A1, “TRAP1 INHIBITOR AND USE THEREOF” (SMARTIN BIO INC., priority 2021, published 2024).
Entries after “also recorded” stand apart in the source; their conditions may differ.

Test system: OIR mice
Assay: Oxygen-induced retinopathy (OIR) model, CD31 whole-mount staining of retina
Assay type: in vivo
Conditions: intravitreal injection at P12 or eye drop administration P12 to P17
Source text: As TRAP1+/+(wild-type), TRAP1+/−(hetero), and TRAP1−/− (knockout) experimental mice, Black6 J strain mice were used. On the 7th day after birth, a baby mouse and a mother mouse were placed in an in vivo chamber (Coy-lab) and supplied with high oxygen (75% O2). On the 12th day after birth, the baby mouse was taken out of the in vivo chamber. Then, a surrogate mother was put thereinto, and normal oxygen (21% O2) was supplied. Then, the eyeball of the baby mouse was removed on the 17th day after birth and used for experiments.
In the process of forming the in vivo oxygen-induced retinopathy (OIR) model, the baby mouse was treated with eye drops for 6 days, from the day when being taken out to normal oxygen after being supplied with high oxygen until the day their eyes were collected (on the 12th day to 17th day after birth). Treatment was performed three times a day at intervals of 4 hours. As a drug treatment method, Mito Q was diluted to a concentration of 1 mM in Liposic and dropped 10 uL into the eyes of the baby mouse. Then, the eyes were allowed to blink for 1 minute. After wiping the residual amount outside the eyeball with a cotton swab, the mouse was returned to the care of the mother mouse. […]

COC1=C(OC)C(=O)C(C[P+](c2ccccc2)(c2ccccc2)c2ccccc2)=C(C)C1=O [MitoQ^S, ((4,5-Dimethoxy-2-methyl-3,6-dioxocyclohexa-1,4-dien-1-yl)methyl)triphenylphosphonium]
avascular and neovascular areas in the retina of the OIR model: both avascular and neovascular areas are significantly reduced; also recorded: significantly reduces both avascular and neovascular areas
